From paper PMC9356783, “Succinimide Derivatives as Antioxidant Anticholinesterases, Anti-α-Amylase, and Anti-α-Glucosidase: In Vitro and In Silico Approaches” (Evidence-based Complementary and Alternative Medicine : eCAM, 2022)
Several values for one entry are separate records, joined by “and”; a condition that tells them apart may be missing. Identical values can stand only once.

Columns and labels:
[1] = DPPH radical scavenging assay; settings: for IC50: read-out: DPPH free radicals scavenging IC50
Description: A previously reported method for DPPH radical scavenging activity was used to determine the anti-oxidant activity of the synthetic compounds with insignificant modification. A solution of DPPH, e.g., (50 µL of 1.0 × 10^−3 M), was prepared freshly and then added to CH3OH (methyl alcohol). A solvent like methanol was used as a control group. The mixture was then incubated for 30 minutes at 25°C. A spectrophotometer is used to calculate the DPPH free radicals at specific wavelength like 517 nm. After the incubation period, Trolox (drug) was used as the control group (positive). The anti-oxidant activity was determined using the following formula:(1) Percent Inhibition=Absorbancecontrol−Absorbancetest sample/Absorbancecontrol×100.

[2] = ABTS radical scavenging assay; settings: for IC50: read-out: ABTS free radicals scavenging IC50
Description: A previously reported method for ABTS radical scavenging assay was used to determine the anti-oxidant activity of the synthetic compounds with negligible modification. The stock solution was prepared, e.g., 7 mM ABTS solution and 2.4 mM of potassium persulfate solution, and then mixed in equal amounts for about 16 hours. The stock solution was then diluted with methyl alcohol. Using a spectrophotometer, the absorption (0.7 ± 0.02) units at 734 nm wavelength were identified. In this assay, the solution was prepared freshly. The ABTS solution (150 µl) was mixed with the synthesized compounds (50 µl) and then reserved in darkness for about 10 minutes. The same procedure was repeated 3 times and then the results were verified using mean ± standard deviation. A solvent, e.g., methanol, was used as blank and the standard (butyl hydroxytoluen in methanol) were run at the same time. The absorbance was checked at a wavelength of 734 nm by utilizing a microplate reader.

α-amylase = target: T1, α-amylase (Sus scrofa, UniProt P00690); test: In vitro α-amylase inhibition assay; format: biochemical
T1 sequence (P00690 16-511): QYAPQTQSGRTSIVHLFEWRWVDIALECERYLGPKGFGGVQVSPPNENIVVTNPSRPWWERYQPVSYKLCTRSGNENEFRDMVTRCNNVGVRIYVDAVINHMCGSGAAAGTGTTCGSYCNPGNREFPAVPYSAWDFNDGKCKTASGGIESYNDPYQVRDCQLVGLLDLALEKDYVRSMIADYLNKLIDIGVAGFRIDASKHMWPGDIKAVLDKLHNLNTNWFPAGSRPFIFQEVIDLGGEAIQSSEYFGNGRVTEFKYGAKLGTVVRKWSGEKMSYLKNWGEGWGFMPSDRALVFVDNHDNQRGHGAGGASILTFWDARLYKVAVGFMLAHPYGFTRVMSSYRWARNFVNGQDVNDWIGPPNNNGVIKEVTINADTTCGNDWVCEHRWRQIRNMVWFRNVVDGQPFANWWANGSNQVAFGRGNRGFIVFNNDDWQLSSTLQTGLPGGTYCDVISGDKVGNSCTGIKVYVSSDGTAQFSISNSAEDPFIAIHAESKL
Description: In this assay, previously documented protocols were used. […] Starch solution was then mixed with the above solution and then incubated for about 20 minutes at 37°C. After incubation, the reactant mixture was then kept in a water bath for some time at 100°C. Color intensity was measured using a microplate reader at 656 nm. To determine percentage inhibition, the following formula was used:(4) Percent Inhibition=AbsorbanceControl−AbsorbanceSample/Absorbance Control×100.

α-glucosidase = α-glucosidase (Saccharomyces cerevisiae, UniProt P53341); test: α-Glucosidase inhibitory assay; format: biochemical
Description: In this assay, glucopyranoside is added to the solvent (phosphate buffer). Various concentrations of the synthetized compounds like 500, 250, 125, 62.5, and 31.25 µg/ml were used for preparing the sample solutions. Glucosidase in distilled water (0.5 µg/ml) was added to the above mixture. This mixture was then incubated for 20 minutes at 37°C [36]. After the incubation period, the reaction mixture was ceased by the addition of hydrochloric acid. The color intensity was determined at 540 nm wavelength using a spectrophotometer. The formula which was used to determine percentage inhibition is:(3) Percent Inhibition=AbsorbanceControl−AbsorbanceSample/Absorbance Control×100.

[3] = target: T2, acetylcholinesterase (AChE) (Electrophorus electricus, UniProt O42275); test: biochemical; format: biochemical
T2 construct: (AChE) acetylcholinesterase from electric eel; purchased Sigma Aldrich (local seller); host or cells: electric eel (natural source)
Description: (§1) In Ellman's test, enzymes like (BChE) butyrylcholinesterase from equine serum and (AChE) acetylcholinesterase from electric eel were designated for studying the enzyme inhibitory capacity of the new synthesized compounds [33, 34].
(§2) Synthetic compounds in concentration ranging from 31.25 to 500 µg/ml, KH2PO4 (13.6 g/L) and K2HPO4 (17.4 g/L), were dissolved in 0.1 M phosphate buffer solution. After mixing, they were combined in 6 and 94% ratio, to make 0.1 M and 8.0 phosphate buffer solutions having […]. Potassium hydroxide was used to change the pH. The freshly prepared buffer […], AChE (518 U/mg solid), and BChE (7–16 U/mg) were diluted to achieve final absolute concentrations of 0.01 U/ml and 0.03 U/ml, respectively. In distilled water, BChI (0.0005 M), DTNB iedithio bis-nitrobenzoic acid solution (0.0002273 M), and AChI were prepared and then kept in the refrigerator [35].
(§3) After that, the substrate solution (5 μl) was added into the solution present in mixture form and was held in a water bath for 15 minutes at 30°C. Absorbance was measured at 412 nm using a double beam spectrophotometer. […] At 30°C, the absorbance and the time of the reaction were measured at 30°C for four minutes and repeated three times.

[4] = target: T3, butyrylcholinesterase (BChE) (Equus caballus, UniProt P81908); test: biochemical; format: biochemical
T3 construct: (BChE) butyrylcholinesterase from equine serum; purchased Sigma Aldrich (local seller); host or cells: equine serum (natural source)
Description: as §1, §2, §3

[5] = 500 μmol/mL (first value of the series)
[6] = first value of series, concentration not given (method 31.25 to 500 µg/ml)
[7] = fifth value of series, presumably 31.25
[8] = fourth value of series, presumably 62.5
[9] = second value of series, presumably 250
[10] = third value of series, presumably 125

Sequence of α-glucosidase (P53341 whole entry): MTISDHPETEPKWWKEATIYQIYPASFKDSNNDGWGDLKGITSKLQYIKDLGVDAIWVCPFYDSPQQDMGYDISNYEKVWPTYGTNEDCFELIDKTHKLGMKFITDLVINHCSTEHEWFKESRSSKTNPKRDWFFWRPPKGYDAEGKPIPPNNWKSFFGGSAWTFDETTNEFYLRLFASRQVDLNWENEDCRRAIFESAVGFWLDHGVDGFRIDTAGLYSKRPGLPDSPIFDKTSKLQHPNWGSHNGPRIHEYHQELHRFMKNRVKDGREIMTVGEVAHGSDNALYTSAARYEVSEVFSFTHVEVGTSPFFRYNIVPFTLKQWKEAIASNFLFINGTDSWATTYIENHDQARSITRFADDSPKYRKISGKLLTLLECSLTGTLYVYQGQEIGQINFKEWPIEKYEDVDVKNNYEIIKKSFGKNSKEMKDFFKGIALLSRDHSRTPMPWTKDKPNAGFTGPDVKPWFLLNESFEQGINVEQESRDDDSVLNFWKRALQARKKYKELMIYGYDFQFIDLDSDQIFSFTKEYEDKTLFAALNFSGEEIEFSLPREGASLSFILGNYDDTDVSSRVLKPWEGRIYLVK
T3 sequence (P81908 whole entry): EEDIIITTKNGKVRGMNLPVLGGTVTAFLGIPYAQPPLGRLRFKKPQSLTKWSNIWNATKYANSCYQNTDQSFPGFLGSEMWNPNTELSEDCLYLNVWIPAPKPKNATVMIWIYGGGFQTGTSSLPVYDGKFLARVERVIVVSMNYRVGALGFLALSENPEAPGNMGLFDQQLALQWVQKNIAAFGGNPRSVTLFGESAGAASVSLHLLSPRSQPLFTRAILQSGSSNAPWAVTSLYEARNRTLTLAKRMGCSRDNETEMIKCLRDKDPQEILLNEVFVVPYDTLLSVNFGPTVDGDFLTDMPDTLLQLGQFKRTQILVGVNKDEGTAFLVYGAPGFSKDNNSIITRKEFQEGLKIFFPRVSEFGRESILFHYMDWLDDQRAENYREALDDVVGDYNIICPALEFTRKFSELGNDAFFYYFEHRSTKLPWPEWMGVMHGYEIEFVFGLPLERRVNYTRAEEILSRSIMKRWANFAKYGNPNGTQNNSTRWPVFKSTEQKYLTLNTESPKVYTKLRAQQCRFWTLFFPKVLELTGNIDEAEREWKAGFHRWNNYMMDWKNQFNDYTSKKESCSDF
T2 sequence (O42275 24-633): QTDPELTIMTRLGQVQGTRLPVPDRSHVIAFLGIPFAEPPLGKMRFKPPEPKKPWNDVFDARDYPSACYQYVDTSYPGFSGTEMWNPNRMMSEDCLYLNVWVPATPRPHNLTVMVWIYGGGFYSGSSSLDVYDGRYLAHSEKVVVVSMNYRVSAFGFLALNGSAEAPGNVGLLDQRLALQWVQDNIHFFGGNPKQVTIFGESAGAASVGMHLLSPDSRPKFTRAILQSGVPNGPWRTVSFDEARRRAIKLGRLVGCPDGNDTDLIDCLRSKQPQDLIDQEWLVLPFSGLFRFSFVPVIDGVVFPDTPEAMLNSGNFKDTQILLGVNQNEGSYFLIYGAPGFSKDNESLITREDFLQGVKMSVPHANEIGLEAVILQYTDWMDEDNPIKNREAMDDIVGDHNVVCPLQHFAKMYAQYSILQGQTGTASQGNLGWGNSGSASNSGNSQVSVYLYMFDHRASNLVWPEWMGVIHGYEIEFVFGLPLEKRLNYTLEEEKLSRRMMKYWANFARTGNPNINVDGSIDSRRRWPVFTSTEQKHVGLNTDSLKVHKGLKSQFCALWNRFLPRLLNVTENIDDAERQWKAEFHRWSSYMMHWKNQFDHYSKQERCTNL

## O=C1CCCCC1C1CC(=O)N(c2ccccc2)C1=O (centres unmarked) [MSJ1, 3-(2-oxocyclohexyl)-1-phenylpyrrolidine-2,5-dione]
[1]
  IC50: 34.6 µM
[2]
  IC50: 29.4 µM

## O=C1O[C@H]([C@@H](O)CO)C(O)=C1O [Ascorbic acid, reference compound]
[1]; 31.25 μmol/mL (fifth value)
  percent radical scavenging (DPPH): 86.42 ± 0.43%
[1]; 62.5 μmol/mL (fourth value)
  percent radical scavenging (DPPH): 88.22 ± 1.28%
[1]; 125 μmol/mL (third value)
  percent radical scavenging (DPPH): 91.52 ± 0.66%
[1]; 250 μmol/mL (second value)
  percent radical scavenging (DPPH): 93.56 ± 0.45%
[1]; [5]
  percent radical scavenging (DPPH): 98.65 ± 1.32%
[1]
  IC50: 6.25 µM
[2]
  IC50: 4.66 µM

## O=C1CCCC1C1CC(=O)N(c2ccccc2)C1=O (centres unmarked) [MSJ8, 3-(2-oxocyclopentyl)-1-phenylpyrrolidine-2,5-dione]
[1]
  IC50: 29.2 µM
[2]
  IC50: 25.2 µM

## O=C1CCCCCC1C1CC(=O)N(c2ccccc2)C1=O (centres unmarked) [MSJ7, 3-(2-oxocycloheptyl)-1-phenylpyrrolidine-2,5-dione]
[1]
  IC50: 31.4 µM
[2]
  IC50: 36.3 µM

## O=C1CCOCC1C1CC(=O)N(c2ccccc2)C1=O (centres unmarked) [MSJ6, 3-(4-oxotetrahydro-2H-pyran-3-yl)-1-phenylpyrrolidine-2,5-dione]
[1]
  IC50: 44.9 µM
[2]
  IC50: 55.1 µM

## C[C@H]1O[C@H](O[C@H]2[C@H](O)[C@@H](O)[C@@H](O[C@H]3[C@H](O)[C@@H](O)C(O)O[C@@H]3CO)O[C@@H]2CO)[C@H](O)[C@@H](O)[C@@H]1N[C@H]1C=C(CO)[C@@H](O)[C@H](O)[C@H]1O (some centres unmarked) [Acarbose]
α-amylase; 31.25 µmol/mL
  α-amylase percent inhibition: 75.45 ± 0.90%
α-amylase; 62.5 µmol/mL
  α-amylase percent inhibition: 77.61 ± 0.43%
α-amylase; 125 µmol/mL
  α-amylase percent inhibition: 82.40 ± 0.20%
α-amylase; 500 µmol/mL
  α-amylase percent inhibition: 91.90 ± 0.96%
α-glucosidase; 31.25 µmol/mL
  α-glucosidase % inhibition: 71.22 ± 0.47%
α-glucosidase; 62.5 µmol/mL
  α-glucosidase % inhibition: 76.44 ± 0.28%
α-glucosidase; 125 µmol/mL
  α-glucosidase % inhibition: 80.90 ± 1.11%
α-glucosidase; 250 µmol/mL
  α-glucosidase % inhibition: 85.03 ± 2.16%
α-glucosidase; 500 µmol/mL
  α-glucosidase % inhibition: 94.40 ± 0.03%

## O=C1CCCCC1C1CC(=O)N(c2ccc(Br)cc2)C1=O (centres unmarked) [MSJ3, 1-(4-bromophenyl)-3-(2-oxocyclohexyl) pyrrolidine-2,5-dione]
[1]
  IC50: 33.5 µM
[2]
  IC50: 24 µM

## CC(=O)CC1CC(=O)N(c2ccccc2)C1=O (centres unmarked) [MSJ9, 3-(2-oxopropyl)-1-phenylpyrrolidine-2,5-dione]
[1]
  IC50: 53 µM
[2]
  IC50: 38.1 µM

## CC1CCC(=O)C(C2CC(=O)N(Cc3ccccc3)C2=O)C1 (centres unmarked) [MSJ5, 1-benzyl-3-(5-methyl-2-oxocyclohexyl)pyrrolidine-2,5-dione]
[1]
  IC50: 39 µM
[2]
  IC50: 51.2 µM

## O=C1CCCCC1C1CC(=O)N(Cc2ccccc2)C1=O (centres unmarked) [MSJ2, 1-benzyl-3-(2-oxocyclohexyl) pyrrolidine-2,5-dione]
[1]; 31.25 μmol/mL (fifth value)
  percent radical scavenging (DPPH): 73.45 ± 0.65%
[1]; 62.5 μmol/mL (fourth value)
  percent radical scavenging (DPPH): 78.23 ± 0.44%
[1]; 125 μmol/mL (third value)
  percent radical scavenging (DPPH): 81.50 ± 0.61%
[1]; 250 μmol/mL (second value)
  percent radical scavenging (DPPH): 84.47 ± 0.46%
[1]; [5]
  percent radical scavenging (DPPH): 86.47 ± 0.70%
[1]
  IC50: 2.59 µM
[3]; [6]
  percent anti-AChE potential: 91.90%
[4]; [6]
  percent anti-BChE potential: 97.30%
[2]; 31.25 µmo/mL (fifth value)
  percent inhibitions (ABTS): 74.65 ± 1.34%
[2]
  IC50: 7.32 µM

## CC1CCC(=O)C(C2CC(=O)N(c3ccccc3)C2=O)C1 (centres unmarked) [MSJ4, 3-(5-methyl-2-oxocyclohexyl)-1-phenylpyrrolidine-2,5-dione]
[1]
  IC50: 32 µM
[2]
  IC50: 48.7 µM

## CC(=O)C(C)(C)C1CC(=O)N(c2ccccc2)C1=O (centres unmarked) [MSJ10, 3-(2-methyl-3-oxobutan-2-yl)-1-phenylpyrrolidine-2,5-dione]
[1]; 62.5 μmol/mL (fourth value)
  percent radical scavenging (DPPH): 79.67 ± 0.61%
[1]; 125 μmol/mL (third value)
  percent radical scavenging (DPPH): 85.79 ± 0.63%
[1]; 250 μmol/mL (second value)
  percent radical scavenging (DPPH): 90.90 ± 0.48%
[1]
  IC50: 2.52 µM
[3]; [7]
  percent anti-AChE potential: 78.58 ± 1.12%
[3]; [6]
  percent anti-AChE potential: 93.20% and 93.20 ± 0.10%
[3]; [8]
  percent anti-AChE potential: 83.40 ± 0.25%
[3]; read-out: IC50 against AChE
  IC50: 4.97 µM
[3]; [9]
  percent anti-AChE potential: 90.09 ± 0.32%
[3]; [10]
  percent anti-AChE potential: 88.67 ± 1.20%
[4]; [7]
  percent anti-BChE potential: 73.89 ± 0.49%
[4]; [6]
  percent anti-BChE potential: 91.36% and 91.36 ± 0.39%
[4]; [8]
  percent anti-BChE potential: 78.26 ± 0.43%
[4]; read-out: IC50 against BChE
  IC50: 10.7 µM
[4]; [9]
  percent anti-BChE potential: 87.15 ± 1.07%
[4]; [10]
  percent anti-BChE potential: 83.00 ± 0.44%
[2]; 62.5 µmo/mL (fourth value)
  percent inhibitions (ABTS): 79.67 ± 0.61%
[2]; 125 µmo/mL (third value)
  percent inhibitions (ABTS): 85.79 ± 0.63%
[2]; 250 µmo/mL (second value)
  percent inhibitions (ABTS): 90.90 ± 0.48%
[2]
  IC50: 3.29 µM
